Like-named read-outs stand apart in the source and are kept apart here. Values belong to the molecule of their own block, whether it stands above or below them.
What was measured:
CDK2 = target: T1, CDK2 (Homo sapiens, UniProt P24941); assay: Z'-Lyte kinase assay (Life Technologies), CDK2; type: biochemical; conditions: co-factor cyclin A; for inhibition at 0.1 µM: compound tested at 100 nM, read-out: CDK2^a percent inhibition; for inhibition at 1 µM: compound tested at 1 μM, read-out: CDK2^b percent inhibition
T1 construct: purchased Life Technologies (assay service)

MV4-11 = assay: Cell proliferation (CellTiter-Glo, 72 hour), MV4-11; type: cell-based; conditions: Homo sapiens, blood cancer cell line, read-out: MV4-11 inhibition of proliferation (IC50)
143B = assay: Cell proliferation (CellTiter-Glo, 72 hour), 143B; type: cell-based; conditions: Homo sapiens, osteosarcoma cell line, read-out: 143B inhibition of proliferation (IC50)
RS4-11 = assay: Cell proliferation (CellTiter-Glo, 72 hour), RS4-11; type: cell-based; conditions: Homo sapiens, blood cancer cell line, read-out: RS4-11 inhibition of proliferation (IC50)
MCF7 = assay: Cell proliferation (CellTiter-Glo, 72 hour), MCF7; type: cell-based; conditions: Homo sapiens, breast cancer cell line, read-out: MCF7 inhibition of proliferation (IC50)
CDK5/p25 = CDK5/p25 (Homo sapiens, UniProt Q00535); assay: Z'-Lyte kinase assay (Life Technologies), CDK5/p25; conditions: for inhibition at 0.1 µM: read-out: CDK5^a,c percent inhibition; for inhibition at 1 µM: read-out: CDK5^b,c percent inhibition
T47D = assay: Cell proliferation (CellTiter-Glo, 72 hour), T47D; type: cell-based; conditions: Homo sapiens, breast cancer cell line, read-out: T47D inhibition of proliferation (IC50)
JNK2 = target: T2, JNK2 (Homo sapiens, UniProt P45984); assay: Z'-Lyte kinase assay (Life Technologies), JNK2; type: biochemical; conditions: for inhibition at 0.1 µM: compound tested at 100 nM, read-out: JNK2^a percent inhibition; for inhibition at 1 µM: compound tested at 1 μM, read-out: JNK2^b percent inhibition
T2 construct: purchased Life Technologies (assay service)

MDA-MB231 = assay: Cell proliferation (CellTiter-Glo, 72 hour), MDA-MB231; type: cell-based; conditions: Homo sapiens, MDA-MB-231, breast cancer cell line, read-out: MDA-MB231 inhibition of proliferation (IC50)
CDK8 = target: T3, CDK8 (Homo sapiens, UniProt P49336); assay: LanthaScreen Eu kinase assay (Life Technologies), CDK8; type: binding; conditions: co-factor cyclin C; for inhibition at 0.1 µM: compound tested at 100 nM, read-out: CDK8^a percent inhibition; for inhibition at 1 µM: compound tested at 1 μM, read-out: CDK8^b percent inhibition
T3 construct: purchased Life Technologies (assay service)

HL60 = assay: Cell proliferation (CellTiter-Glo, 72 hour), HL60; type: cell-based; conditions: Homo sapiens, HL-60, blood cancer cell line, read-out: HL60 inhibition of proliferation (IC50)
CDK1 = target: T4, CDK1 (Homo sapiens, UniProt P06493); assay: Z'-Lyte kinase assay (Life Technologies), CDK1; type: biochemical; conditions: co-factor cyclin B; for inhibition at 0.1 µM: compound tested at 100 nM, read-out: CDK1^a percent inhibition; for inhibition at 1 µM: compound tested at 1 μM, read-out: CDK1^b percent inhibition
T4 construct: purchased Life Technologies (assay service)

SAOS = assay: Cell proliferation (CellTiter-Glo, 72 hour), SAOS; type: cell-based; conditions: osteosarcoma cell line, read-out: SAOS inhibition of proliferation (IC50)
CDK5/p35 = CDK5/p35 (Homo sapiens, UniProt Q00535); assay: Z'-Lyte kinase assay (Life Technologies), CDK5/p35; conditions: for inhibition at 0.1 µM: read-out: CDK5^a,d percent inhibition; for inhibition at 1 µM: read-out: CDK5^b,d percent inhibition
Hs822T = assay: Cell proliferation (CellTiter-Glo, 72 hour), Hs822T; type: cell-based; conditions: Ewing's sarcoma cell line, read-out: Hs822T inhibition of proliferation (IC50)
MCF10A = assay: Cell proliferation (CellTiter-Glo, 72 hour), MCF10A; type: cell-based; conditions: Homo sapiens, MCF-10A, breast cancer cell lines table, read-out: MCF10A inhibition of proliferation (IC50)
SK-ES-1 = assay: Cell proliferation (CellTiter-Glo, 72 hour), SK-ES-1; type: cell-based; conditions: Homo sapiens, SK-ES1, Ewing's sarcoma cell line, read-out: SK-ES-1 inhibition of proliferation (IC50)
MNNG-HOS Cl #5 = assay: Cell proliferation (CellTiter-Glo, 72 hour), MNNG-HOS Cl #5; type: cell-based; conditions: osteosarcoma cell line, read-out: MNNG-HOS Cl#5 inhibition of proliferation (IC50)
RD-ES = assay: Cell proliferation (CellTiter-Glo, 72 hour), RD-ES; type: cell-based; conditions: Ewing's sarcoma cell line, read-out: RD-ES inhibition of proliferation (IC50)
MLK3 = target: T5, MLK3 (Homo sapiens, UniProt Q16584); assay: LanthaScreen Eu kinase assay (Life Technologies), MLK3; type: binding; conditions: for IC50: Table 2, read-out: MLK3 (calculated IC50); for inhibition at 0.1 µM: compound tested at 100 nM, read-out: MLK3^a percent inhibition
T5 construct: purchased Life Technologies (assay service)

Jurkat cells = assay: Cell proliferation (CellTiter-Glo, 72 hour), Jurkat; type: cell-based; conditions: Homo sapiens, blood cancer cell line
hTERT-HME1 = assay: Cell proliferation (CellTiter-Glo, 72 hour), hTERT-HME1; type: cell-based; conditions: breast cancer cell lines table, read-out: hTERT-HME1 inhibition of proliferation (IC50)
SKBR3 = assay: Cell proliferation (CellTiter-Glo, 72 hour), SKBR3; type: cell-based; conditions: Homo sapiens, SK-BR-3, breast cancer cell line, read-out: SKBR3 inhibition of proliferation (IC50)
IRAK1 = target: T6, IRAK1 (Homo sapiens, UniProt P51617); assay: Adapta kinase assay (Life Technologies), IRAK1; type: biochemical; conditions: for inhibition at 0.1 µM: compound tested at 100 nM, read-out: IRAK1^a percent inhibition; for inhibition at 1 µM: compound tested at 1 μM, read-out: IRAK1^b percent inhibition
T6 construct: purchased Life Technologies (assay service)

THP-1 = assay: Cell proliferation (CellTiter-Glo, 72 hour), THP-1; type: cell-based; conditions: Homo sapiens, blood cancer cell line, read-out: THP-1 inhibition of proliferation (IC50)
A673 = assay: Cell proliferation (CellTiter-Glo, 72 hour), A673; type: cell-based; conditions: Homo sapiens, Ewing's sarcoma cell line, read-out: A673 inhibition of proliferation (IC50)
JNK1 = target: T7, JNK1 (Homo sapiens, UniProt P45983); assay: Z'-Lyte kinase assay (Life Technologies), JNK1; type: biochemical; conditions: for inhibition at 0.1 µM: compound tested at 100 nM, read-out: JNK1^a percent inhibition; for inhibition at 1 µM: compound tested at 1 μM, read-out: JNK1^b percent inhibition
T7 construct: purchased Life Technologies (assay service)

CDK9/cyclin T1 = CDK9/cyclin T1 (Homo sapiens, UniProt P50750); assay: Adapta kinase assay (Life Technologies), CDK9/cyclin T1; conditions: for inhibition at 0.1 µM: read-out: CDK9^a,e percent inhibition; for inhibition at 1 µM: read-out: CDK9^b,e percent inhibition
Hs863T = assay: Cell proliferation (CellTiter-Glo, 72 hour), Hs863T; type: cell-based; conditions: Ewing's sarcoma cell line, read-out: Hs863T inhibition of proliferation (IC50)
CDK7 = target: T8, CDK7 (Homo sapiens, UniProt P50613); assay: Adapta kinase assay (Life Technologies), CDK7; type: biochemical
T8 construct: purchased Life Technologies (assay service)

[1] = Table 1C, co-factors cyclin H and MNAT1, read-out: CDK7 IC50
[2] = Table 2, co-factors cyclin H and MNAT1, read-out: CDK7 (calculated IC50)

T5 sequence (Q16584 whole entry): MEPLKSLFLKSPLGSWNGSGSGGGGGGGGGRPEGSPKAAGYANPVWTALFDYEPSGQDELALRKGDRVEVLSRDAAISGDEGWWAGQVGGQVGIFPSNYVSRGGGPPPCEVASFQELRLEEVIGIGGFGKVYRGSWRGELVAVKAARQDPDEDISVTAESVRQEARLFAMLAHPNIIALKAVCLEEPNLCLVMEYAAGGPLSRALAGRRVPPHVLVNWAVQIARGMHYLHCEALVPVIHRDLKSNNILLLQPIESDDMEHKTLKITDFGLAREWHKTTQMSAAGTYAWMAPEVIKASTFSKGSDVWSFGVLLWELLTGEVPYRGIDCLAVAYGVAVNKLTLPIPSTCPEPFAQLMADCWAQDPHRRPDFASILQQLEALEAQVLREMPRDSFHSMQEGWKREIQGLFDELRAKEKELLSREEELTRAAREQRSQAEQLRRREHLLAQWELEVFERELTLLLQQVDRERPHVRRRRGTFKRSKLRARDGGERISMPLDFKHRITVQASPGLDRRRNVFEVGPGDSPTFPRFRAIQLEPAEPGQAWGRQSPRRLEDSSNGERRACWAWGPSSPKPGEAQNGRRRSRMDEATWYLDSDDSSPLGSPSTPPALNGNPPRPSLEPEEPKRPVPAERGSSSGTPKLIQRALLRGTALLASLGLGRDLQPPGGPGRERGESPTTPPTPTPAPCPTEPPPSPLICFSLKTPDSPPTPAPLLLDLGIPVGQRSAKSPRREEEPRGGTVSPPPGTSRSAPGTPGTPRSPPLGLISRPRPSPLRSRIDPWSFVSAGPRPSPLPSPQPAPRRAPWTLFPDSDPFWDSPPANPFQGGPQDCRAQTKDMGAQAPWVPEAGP
T7 sequence (P45983 whole entry): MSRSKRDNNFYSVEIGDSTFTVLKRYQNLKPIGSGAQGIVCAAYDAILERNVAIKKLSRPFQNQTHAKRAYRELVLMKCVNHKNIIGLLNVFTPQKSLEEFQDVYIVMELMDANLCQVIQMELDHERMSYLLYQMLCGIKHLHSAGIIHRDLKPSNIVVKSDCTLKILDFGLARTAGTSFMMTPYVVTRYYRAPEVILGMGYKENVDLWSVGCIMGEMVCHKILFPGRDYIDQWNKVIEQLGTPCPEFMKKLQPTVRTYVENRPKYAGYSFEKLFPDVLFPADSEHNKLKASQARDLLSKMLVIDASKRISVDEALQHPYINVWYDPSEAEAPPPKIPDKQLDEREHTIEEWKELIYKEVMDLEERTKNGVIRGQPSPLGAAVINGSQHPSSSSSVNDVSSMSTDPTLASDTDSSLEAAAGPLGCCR
T6 sequence (P51617 whole entry): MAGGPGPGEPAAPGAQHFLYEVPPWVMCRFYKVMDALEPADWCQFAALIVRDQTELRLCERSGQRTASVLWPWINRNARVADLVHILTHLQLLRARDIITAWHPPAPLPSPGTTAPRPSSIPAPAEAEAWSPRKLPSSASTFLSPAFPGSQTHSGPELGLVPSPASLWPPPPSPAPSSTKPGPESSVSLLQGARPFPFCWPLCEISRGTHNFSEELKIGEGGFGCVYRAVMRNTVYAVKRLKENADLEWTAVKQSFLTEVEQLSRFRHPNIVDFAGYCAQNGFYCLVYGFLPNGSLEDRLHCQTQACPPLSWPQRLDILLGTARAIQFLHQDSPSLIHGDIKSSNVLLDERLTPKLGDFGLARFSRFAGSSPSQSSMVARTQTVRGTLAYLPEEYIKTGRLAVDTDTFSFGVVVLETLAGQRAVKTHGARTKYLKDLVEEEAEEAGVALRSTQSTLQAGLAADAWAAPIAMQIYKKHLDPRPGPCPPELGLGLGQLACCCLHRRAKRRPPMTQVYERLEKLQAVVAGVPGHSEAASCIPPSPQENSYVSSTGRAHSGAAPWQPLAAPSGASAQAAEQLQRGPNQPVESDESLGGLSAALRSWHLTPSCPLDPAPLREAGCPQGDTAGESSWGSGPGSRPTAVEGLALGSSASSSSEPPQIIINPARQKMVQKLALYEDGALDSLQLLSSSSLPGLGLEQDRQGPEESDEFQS
T8 sequence (P50613 whole entry): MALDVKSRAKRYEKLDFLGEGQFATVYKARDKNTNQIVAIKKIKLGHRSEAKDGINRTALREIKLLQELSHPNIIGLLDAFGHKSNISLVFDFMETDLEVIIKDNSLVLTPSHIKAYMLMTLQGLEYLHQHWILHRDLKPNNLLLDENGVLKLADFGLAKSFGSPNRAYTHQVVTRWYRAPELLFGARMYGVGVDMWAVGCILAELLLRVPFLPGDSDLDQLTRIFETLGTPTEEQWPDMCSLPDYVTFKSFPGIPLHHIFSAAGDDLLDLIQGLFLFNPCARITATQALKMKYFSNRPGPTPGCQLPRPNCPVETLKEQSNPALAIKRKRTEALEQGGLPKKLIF
T8 sequence (P51946 whole entry partner): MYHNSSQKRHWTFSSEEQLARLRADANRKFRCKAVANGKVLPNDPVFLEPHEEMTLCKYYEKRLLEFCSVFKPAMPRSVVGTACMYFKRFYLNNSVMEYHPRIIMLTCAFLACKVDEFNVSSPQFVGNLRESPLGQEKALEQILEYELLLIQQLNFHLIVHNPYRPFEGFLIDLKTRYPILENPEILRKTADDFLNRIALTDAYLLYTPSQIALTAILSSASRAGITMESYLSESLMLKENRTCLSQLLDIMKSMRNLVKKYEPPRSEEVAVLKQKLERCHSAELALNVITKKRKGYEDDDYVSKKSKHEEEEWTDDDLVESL
T8 sequence (P51948 whole entry partner): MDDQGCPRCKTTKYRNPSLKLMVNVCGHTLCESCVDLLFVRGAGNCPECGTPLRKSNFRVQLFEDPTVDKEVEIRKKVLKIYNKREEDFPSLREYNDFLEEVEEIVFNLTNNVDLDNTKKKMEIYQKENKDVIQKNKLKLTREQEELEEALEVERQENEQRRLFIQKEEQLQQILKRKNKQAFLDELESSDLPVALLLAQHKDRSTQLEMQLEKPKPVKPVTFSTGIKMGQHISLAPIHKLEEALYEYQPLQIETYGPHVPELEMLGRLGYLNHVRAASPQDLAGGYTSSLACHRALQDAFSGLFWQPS
T2 sequence (P45984 whole entry): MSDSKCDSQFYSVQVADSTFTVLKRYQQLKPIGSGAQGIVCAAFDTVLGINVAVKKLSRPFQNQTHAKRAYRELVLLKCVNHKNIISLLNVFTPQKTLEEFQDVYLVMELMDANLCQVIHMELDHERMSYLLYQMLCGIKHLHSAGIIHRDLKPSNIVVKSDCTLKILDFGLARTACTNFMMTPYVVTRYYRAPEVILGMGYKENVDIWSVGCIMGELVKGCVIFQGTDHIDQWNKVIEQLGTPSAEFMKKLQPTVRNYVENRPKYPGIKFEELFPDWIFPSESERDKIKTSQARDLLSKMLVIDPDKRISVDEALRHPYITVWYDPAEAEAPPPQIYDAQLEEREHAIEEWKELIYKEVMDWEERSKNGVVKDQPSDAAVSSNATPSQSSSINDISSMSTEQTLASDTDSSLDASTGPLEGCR
Sequence of CDK9/cyclin T1 (P50750 whole entry): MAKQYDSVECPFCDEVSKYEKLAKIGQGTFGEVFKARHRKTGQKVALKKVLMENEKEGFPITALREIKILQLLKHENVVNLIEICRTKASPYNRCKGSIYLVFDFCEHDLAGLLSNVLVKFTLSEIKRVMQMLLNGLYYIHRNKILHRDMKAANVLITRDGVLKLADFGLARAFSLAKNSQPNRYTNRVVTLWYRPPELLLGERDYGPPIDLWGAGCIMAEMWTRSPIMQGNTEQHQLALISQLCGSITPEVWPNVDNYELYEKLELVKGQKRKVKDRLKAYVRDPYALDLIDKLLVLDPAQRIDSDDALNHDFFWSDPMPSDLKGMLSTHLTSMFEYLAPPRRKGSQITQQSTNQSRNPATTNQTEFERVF
Sequence of CDK9/cyclin T1 (O60563 whole entry partner): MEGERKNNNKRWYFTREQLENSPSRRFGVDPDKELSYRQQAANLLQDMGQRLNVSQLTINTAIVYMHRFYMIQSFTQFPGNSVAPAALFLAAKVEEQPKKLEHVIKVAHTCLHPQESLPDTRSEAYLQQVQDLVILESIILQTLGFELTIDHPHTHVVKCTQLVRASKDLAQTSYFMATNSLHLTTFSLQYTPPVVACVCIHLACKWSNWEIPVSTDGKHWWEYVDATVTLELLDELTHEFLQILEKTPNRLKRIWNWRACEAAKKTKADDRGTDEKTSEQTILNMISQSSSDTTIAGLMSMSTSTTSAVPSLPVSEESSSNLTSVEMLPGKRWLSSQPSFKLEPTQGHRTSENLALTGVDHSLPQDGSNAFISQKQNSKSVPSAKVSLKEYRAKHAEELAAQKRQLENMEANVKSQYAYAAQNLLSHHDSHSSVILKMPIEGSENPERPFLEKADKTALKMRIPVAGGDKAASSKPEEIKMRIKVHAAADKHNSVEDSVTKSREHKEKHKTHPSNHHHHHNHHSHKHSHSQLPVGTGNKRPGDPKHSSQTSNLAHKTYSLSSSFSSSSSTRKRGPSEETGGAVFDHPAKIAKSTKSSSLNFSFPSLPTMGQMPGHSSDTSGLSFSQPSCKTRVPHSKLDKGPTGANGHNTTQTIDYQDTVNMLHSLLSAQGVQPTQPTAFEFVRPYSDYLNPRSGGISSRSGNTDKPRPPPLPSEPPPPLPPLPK

inhibition at 0.1 µM (CDK2): < 50% | inhibition at 1 µM (CDK2): < 50% | IC50 (MV4-11): < 0.5 µM | IC50 (RS4-11): 0.5 to 5 µM | IC50 (MCF7): 0.5 to 5 µM | IC50 (CDK5/p25): > 1 µM | inhibition at 0.1 µM (CDK5/p25): < 50% | inhibition at 1 µM (CDK5/p25): < 50% | IC50 (T47D): > 5 µM | inhibition at 0.1 µM (JNK2): < 50% | inhibition at 1 µM (JNK2): > 70% | IC50 (MDA-MB231): 0.5 to 5 µM | inhibition at 0.1 µM (CDK8): < 50% | inhibition at 1 µM (CDK8): < 50% | IC50 (HL60): 0.5 to 5 µM | inhibition at 0.1 µM (CDK1): < 50% | inhibition at 1 µM (CDK1): < 50% | inhibition at 0.1 µM (CDK5/p35): < 50% | inhibition at 1 µM (CDK5/p35): < 50% | IC50 (SK-ES-1): 0.5 to 5 µM | IC50 (MLK3): > 1 µM | inhibition at 0.1 µM (MLK3): < 50% | IC50 (Jurkat cells): 0.5 to 5 µM | IC50 (SKBR3): > 5 µM | inhibition at 0.1 µM (IRAK1): < 50% | inhibition at 1 µM (IRAK1): < 50% | IC50 (THP-1): 0.5 to 5 µM | inhibition at 0.1 µM (JNK1): < 50% | inhibition at 1 µM (JNK1): 50 to 70% | inhibition at 0.1 µM (CDK9/cyclin T1): < 50% | inhibition at 1 µM (CDK9/cyclin T1): 50 to 70% | IC50 (CDK7; [1]): 0.1 to 1 µM | IC50 (CDK7; [2]): 0.1 to 1 µM
SMILES: CN(C)C/C=C/C(=O)Nc1ccc(C(=O)N[C@H]2CCC[C@H](Nc3ncc(Cl)c(-c4c[nH]c5ccccc45)n3)C2)cc1 [compound 103]
IC50 (143B): > 5 µM | IC50 (SAOS): 0.5 to 5 µM | IC50 (Hs822T): > 5 µM | IC50 (MCF10A): < 0.5 µM | IC50 (MNNG-HOS Cl #5): > 5 µM | IC50 (RD-ES): 0.5 to 5 µM | IC50 (hTERT-HME1): 0.5 to 5 µM | IC50 (A673): < 0.5 µM | IC50 (Hs863T): > 5 µM

inhibition at 0.1 µM (CDK2): < 50% | inhibition at 1 µM (CDK2): < 50% | IC50 (MV4-11): < 0.5 µM | IC50 (RS4-11): < 0.5 µM | IC50 (MCF7): > 5 µM | IC50 (CDK5/p25): > 1 µM | inhibition at 0.1 µM (CDK5/p25): < 50% | inhibition at 1 µM (CDK5/p25): < 50% | IC50 (T47D): > 5 µM | inhibition at 0.1 µM (JNK2): < 50% | inhibition at 1 µM (JNK2): 50 to 70% | IC50 (MDA-MB231): < 0.5 µM | inhibition at 0.1 µM (CDK8): < 50% | inhibition at 1 µM (CDK8): < 50% | IC50 (HL60): < 0.5 µM | inhibition at 0.1 µM (CDK1): < 50% | inhibition at 1 µM (CDK1): < 50% | inhibition at 0.1 µM (CDK5/p35): < 50% | inhibition at 1 µM (CDK5/p35): < 50% | IC50 (SK-ES-1): < 0.5 µM | IC50 (MLK3): > 1 µM | inhibition at 0.1 µM (MLK3): < 50% | IC50 (Jurkat cells): < 0.5 µM | IC50 (SKBR3): > 5 µM | inhibition at 0.1 µM (IRAK1): < 50% | inhibition at 1 µM (IRAK1): < 50% | IC50 (THP-1): < 0.5 µM | inhibition at 0.1 µM (JNK1): < 50% | inhibition at 1 µM (JNK1): 50 to 70% | inhibition at 0.1 µM (CDK9/cyclin T1): < 50% | inhibition at 1 µM (CDK9/cyclin T1): < 50% | IC50 (CDK7; [1]): < 0.1 µM | IC50 (CDK7; [2]): < 0.1 µM
SMILES: CN(C)C/C=C/C(=O)Nc1ccc(C(=O)N[C@H]2CCC[C@@H](Nc3ncc(Cl)c(-c4c[nH]c5ccccc45)n3)C2)cc1 [Compound 102, N-((1S,3R)-3-(5-chloro-4-(1H-indol-3-yl)pyrimidin-2-ylamino)cyclohexyl)-4-((E)-4-(dimethylamino)but-2-enamido)benzamide]
IC50 (143B): > 5 µM | IC50 (SAOS): < 0.5 µM | IC50 (Hs822T): > 5 µM | IC50 (MCF10A): < 0.5 µM | IC50 (MNNG-HOS Cl #5): > 5 µM | IC50 (RD-ES): < 0.5 µM | IC50 (hTERT-HME1): < 0.5 µM | IC50 (A673): < 0.5 µM | IC50 (Hs863T): > 5 µM

SMILES: CC(C)[C@]12O[C@H]1[C@@H]1O[C@]13[C@]1(O[C@H]1C[C@H]1C4=C(CC[C@@]13C)C(=O)OC4)[C@@H]2O [Triptolide, triptolide, reference compound]
IC50 (MV4-11): < 0.5 µM | IC50 (143B): < 0.5 µM | IC50 (RS4-11): < 0.5 µM | IC50 (MCF7): < 0.5 µM | IC50 (T47D): > 5 µM | IC50 (MDA-MB231): < 0.5 µM | IC50 (HL60): < 0.5 µM | IC50 (SAOS): < 0.5 µM | IC50 (Hs822T): 0.5 to 5 µM | IC50 (MCF10A): < 0.5 µM | IC50 (SK-ES-1): < 0.5 µM | IC50 (MNNG-HOS Cl #5): < 0.5 µM | IC50 (RD-ES): < 0.5 µM | IC50 (hTERT-HME1): < 0.5 µM | IC50 (SKBR3): < 0.5 µM | IC50 (THP-1): < 0.5 µM | IC50 (A673): < 0.5 µM | IC50 (Hs863T): > 5 µM

Source: patent publication US10906889B2, “Polycyclic inhibitors of cyclin-dependent kinase 7 (CDK7)” (Dana-Farber Cancer Institute, Inc., priority 2013, dated 2021)
